The record followed here is patent publication US20250340552A1, “COMPOUNDS, COMPOSITIONS AND METHODS OF TREATING DISORDERS” (HOTSPOT THERAPEUTICS, INC., priority 2022, published 2025).

This assay addresses T1, Cbl-B (Homo sapiens, UniProt Q13191).
T1 construct: MSD-Based Assay for Degradation of Cbl-B in THP-1 Cells; endogenous in cells; host or cells: THP-1 (title) / Jurkat (protocol text)
The assay can be described thus: MSD-based assay for degradation of Cbl-B in THP-1 cells. It counts as cell-based. On the procedure: MSD-Based Assay for Degradation of Cbl-B in THP-1 Cells
Assay plates were then shaken at 600 rpm for 5 minutes, followed by incubation for 24 hours in the 37° C. TC incubator. […] Cell debris was then spun down at maximum speed (about 3200 g) for 30 min and lysates frozen in the −80° C. fridge. Meanwhile, MSD plates (L15XA-3) were coated overnight at 4° C. with 1 ug/mL capture antibody (Anti-Cbl-B antibody, 246C5a and Mouse mAB, ab54362). […] Blocking buffer was 3% Blocker A (MSD, R93BA-4) in TBST. Plates were washed 3× with 150 ul/well of 1×TBST and sample lysates (70 ul/well) then added, followed by shaking for 1 hr at RT, 600 rpm. […] Plates were again washed 3× with 150 ul/well of 1×TBST, followed by addition of Secondary Detection antibody, SULFO-TAG anti-species antibody (Anti Rabbit Antibody (R32AB-5) MSD, R32AB-1) at a final concentration of 1 ug/ml and 25 uL/well, followed by shaking for 1 hr at RT, 600 rpm. Plates were again washed 3× with 150 ul/well of 1×TBST, followed by addition of 1×MSD reading buffer (MSD, R92TC-2), 150 ul/well, diluted from 4× with water.
Compound Dmax were binned into A through D as follows: A indicates >70%, B indicates 50-70%, C indicates 30-50%, D indicates <30%.

[1] abbreviates: Cbl-B degradation, Jurkat cells seeded (heading: THP-1 cells), 24 hours incubation, MSD readout.
The mark [2] stands for this setting: Cbl-B degradation, Jurkat cells seeded (heading: THP-1 cells), 24 hours incubation, MSD readout, read-out: Dmax.

Read-outs that look alike come from different tables or passages of the source.

T1 sequence (Q13191 whole entry): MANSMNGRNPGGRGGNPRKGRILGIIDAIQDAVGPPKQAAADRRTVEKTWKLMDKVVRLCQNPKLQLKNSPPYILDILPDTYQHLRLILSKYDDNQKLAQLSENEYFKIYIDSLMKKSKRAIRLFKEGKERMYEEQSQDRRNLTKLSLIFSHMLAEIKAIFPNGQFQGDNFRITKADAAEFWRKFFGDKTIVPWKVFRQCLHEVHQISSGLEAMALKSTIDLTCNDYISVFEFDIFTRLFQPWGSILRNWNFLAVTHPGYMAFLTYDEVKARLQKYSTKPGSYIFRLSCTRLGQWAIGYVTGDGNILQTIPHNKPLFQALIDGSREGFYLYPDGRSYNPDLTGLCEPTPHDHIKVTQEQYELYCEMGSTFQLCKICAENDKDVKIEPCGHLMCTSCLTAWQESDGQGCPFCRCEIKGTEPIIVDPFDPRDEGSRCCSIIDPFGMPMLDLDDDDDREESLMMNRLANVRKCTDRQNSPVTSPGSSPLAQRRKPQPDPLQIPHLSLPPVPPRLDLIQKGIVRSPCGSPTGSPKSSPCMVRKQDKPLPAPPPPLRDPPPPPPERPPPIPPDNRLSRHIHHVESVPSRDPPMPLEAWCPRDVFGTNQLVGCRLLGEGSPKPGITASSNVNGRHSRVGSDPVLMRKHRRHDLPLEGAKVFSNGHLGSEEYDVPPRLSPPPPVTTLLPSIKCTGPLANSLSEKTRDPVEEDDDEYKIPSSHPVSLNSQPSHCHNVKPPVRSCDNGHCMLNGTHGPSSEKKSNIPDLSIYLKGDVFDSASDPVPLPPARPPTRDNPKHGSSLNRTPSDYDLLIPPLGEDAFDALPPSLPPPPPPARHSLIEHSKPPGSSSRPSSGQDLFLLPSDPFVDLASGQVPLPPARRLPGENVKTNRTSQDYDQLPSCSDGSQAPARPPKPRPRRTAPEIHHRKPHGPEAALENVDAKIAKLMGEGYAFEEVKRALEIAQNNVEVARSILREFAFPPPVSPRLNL

On to `Cn1cnnc1[C@@H](c1cccc(-n2cc3c(C(F)(F)F)cc(CN4CCC(CC(=O)N5CCC(Cc6ccc(-c7ccc8c(c7)CN([C@@H]7CCC(=O)NC7=O)C8=O)cc6)CC5)CC4)cn3c2=O)c1)C1CCC1` [Compound 179], for which the 50% degradation concentration (DC50) – broadly, the concentration giving 50% degradation – under setting [1] is 300 to 1000 nM. The greatest degradation seen (Dmax) (as a rule, the largest share of the target that was removed) (THP-1) was 30 to 50%. Turning to `Cn1cnnc1[C@@H](c1cccc(-n2cc3c(C(F)(F)F)cc(CN4CCC(N5CCN(c6ccc7c(c6)CN([C@H]6CCC(=O)NC6=O)C7=O)CC5)CC4)cn3c2=O)c1)C1CCC1` (single isomer, unassigned) [Compound 41], under setting [1], the DC50 lay in the range of 1000 to 10000 nM. Also, the maximal degradation (Dmax) under setting [2] was less than 30%.

With `Cn1cnnc1[C@@H](c1cccc(-n2cc3c(C(F)(F)F)cc(CN4CCC[C@@H](OC5CCN(C(=O)c6ccc(N7CCN(c8ccc9c(c8)CN([C@H]8CCC(=O)NC8=O)C9=O)CC7)cc6)CC5)C4)cn3c2=O)c1)C1CCC1` (single isomer, unassigned) [Compound 172], the half-maximal degradation concentration (DC50) under setting [1] was less than 30 nM. Also, the Dmax under setting [2] is greater than 70%.

Under setting [1], `Cn1cnnc1[C@@H](c1cccc(-n2cc3c(C(F)(F)F)cc(CN4CCN(CCc5ccc(C6CCN(c7ccc8c(c7)CN([C@@H]7CCC(=O)NC7=O)C8=O)CC6)cc5)CC4)cn3c2=O)c1)C1CCC1` [Compound 227] yielded a 50% degradation concentration (DC50) of 30 to 300 nM. For the same compound, under setting [2], the greatest degradation seen (Dmax) fell in the range of 50 to 70%. As for `Cn1cnnc1CC1(c2cccc(-n3cc4c(C(F)(F)F)cc(CN5CCC(OCc6ccc(C7CCN(c8ccc9c(c8)CN([C@@H]8CCC(=O)NC8=O)C9=O)CC7)cc6)CC5)cn4c3=O)c2)COC1` (single isomer, unassigned) [Compound 205], under setting [1], the DC50 lay within 30 to 300 nM. Under setting [2], the maximal degradation (Dmax) lay in the range of 30 to 50%. The matching figures for `CN(CCN(C)C(=O)c1cc(C(F)(F)F)c2cn(-c3cccc([C@H](c4nncn4C)C4CCC4)c3)c(=O)n2c1)C(=O)c1ccc(C2CCN(c3ccc4c(c3)CN([C@@H]3CCC(=O)NC3=O)C4=O)CC2)cc1` (single isomer, unassigned) [Compound 197]: greater than 10000 nM and less than 30%. `Cn1cnnc1CC1(c2cccc(-n3cc4c(C(F)(F)F)cc(CN5CC(OCCN6CCC(CN7CCN(c8ccc9c(c8)CN(C8CCC(=O)NC8=O)C9=O)CC7)CC6)C5)cn4c3=O)c2)COC1` (centres unmarked) [Compound 113] registered a 50% degradation concentration (DC50) under setting [1] greater than 10000 nM. Moreover, where the note is “THP-1”, the Dmax was less than 30%. In turn, `CN(CC1CCN(Cc2cc(C(F)(F)F)c3cn(-c4cccc([C@H](c5nncn5C)C5CCC5)c4)c(=O)n3c2)CC1)C(=O)c1ccc(N2CCN(c3ccc4c(c3)CN([C@@H]3CCC(=O)NC3=O)C4=O)CC2)cc1` (single isomer, unassigned) [Compound 117] displayed a DC50 under setting [1] of 1000 to 10000 nM. Also, under setting [2], the greatest degradation seen (Dmax) was 30 to 50%.

Turning to `Cn1cnnc1[C@@H](c1cccc(-n2cc3c(C(F)(F)F)cc(CN4CCC(CCN5CCC(CN6CCN(c7ccc8c(c7)CN([C@H]7CCC(=O)NC7=O)C8=O)CC6)CC5)CC4)cn3c2=O)c1)C1CCC1` (single isomer, unassigned) [Compound 110], under setting [1], the DC50 was less than 30 nM. The maximal degradation (Dmax) under setting [2] was greater than 70%.

Compound `CN(CCOCc1cc(C(F)(F)F)c2cn(-c3cccc([C@H](c4nncn4C)C4CCC4)c3)c(=O)n2c1)C(=O)c1ccc(N2CCN(c3ccc4c(c3)CN([C@@H]3CCC(=O)NC3=O)C4=O)CC2)cc1` (single isomer, unassigned) [Compound 147] showed a half-maximal degradation concentration (DC50) under setting [1] greater than 10000 nM. Further, the Dmax under setting [2] was less than 30%.

Regarding `Cn1cnnc1[C@@H](c1cccc(-n2cc3c(C(F)(F)F)cc(CN4CCC(OCCN5CCC(CN6CCN(c7ccc8c(c7)CN([C@@H]7CCC(=O)NC7=O)C8=O)CC6)CC5)CC4)cn3c2=O)c1)C1CCC1` (single isomer, unassigned) [Compound 48], the DC50 under setting [1] lay in the range of 300 to 1000 nM. Also, under setting [2], the Dmax was 30 to 50%.

As for `Cn1cnnc1CC1(c2cccc(-n3cc4c(C(F)(F)F)cc(CN5CCC(OCc6ccc(C(=O)N7CCN(c8ccc9c(c8)CN([C@@H]8CCC(=O)NC8=O)C9=O)CC7)cc6)CC5)cn4c3=O)c2)COC1` (single isomer, unassigned) [Compound 243], the DC50 under setting [1] fell in the range of 30 to 300 nM. Moreover, the maximal degradation (Dmax) under setting [2] is greater than 70%. The matching figures for `Cn1cnnc1[C@@H](c1cccc(-n2cc3c(C(F)(F)F)cc(CN4CCC(CC(=O)N5CCC(C6CCN(c7ccc8c(c7)CN([C@@H]7CCC(=O)NC7=O)C8=O)CC6)CC5)CC4)cn3c2=O)c1)C1CCC1` (single isomer, unassigned) [Compound 177]: 300 to 1000 nM and 30 to 50%. `CN(CCN(C)C(=O)c1cc(C(F)(F)F)c2cn(-c3cccc([C@H](c4nncn4C)C4CCC4)c3)c(=O)n2c1)C(=O)c1ccc(N2CCN(c3ccc4c(c3)CN([C@H]3CCC(=O)NC3=O)C4=O)CC2)cc1` (single isomer, unassigned) [Compound 142] returned a half-maximal degradation concentration (DC50) under setting [1] greater than 10000 nM. In addition, under setting [2], the Dmax was 30 to 50%.

Compound `Cn1cnnc1[C@@H](c1cccc(-n2cc3c(C(F)(F)F)cc(CN4CCC(OCc5ccc(CC6CCN(c7ccc8c(c7)CN([C@@H]7CCC(=O)NC7=O)C8=O)CC6)cc5)CC4)cn3c2=O)c1)C1CCC1` (single isomer, unassigned) [Compound 217] had a DC50 under setting [1] of 300 to 1000 nM. In addition, under setting [2], the greatest degradation seen (Dmax) is 30 to 50%. In turn, `Cn1cnnc1[C@@H](c1cccc(-n2cc3c(C(F)(F)F)cc(CN4CCC(OCc5ccc(CN6CCN(c7ccc8c(c7)CN([C@@H]7CCC(=O)NC7=O)C8=O)CC6)cc5)CC4)cn3c2=O)c1)C1CCC1` (single isomer, unassigned) [Compound 91] registered a DC50 under setting [1] of 300 to 1000 nM. For the setting “THP-1”, this compound displayed a maximal degradation (Dmax) of 30 to 50%.

In turn, `Cn1cnnc1[C@@H](c1cccc(-n2cc3c(C(F)(F)F)cc(CN4CCC(CN5CCN(c6ccc7c(c6)CN([C@H]6CCC(=O)NC6=O)C7=O)CC5)CC4)cn3c2=O)c1)C1CCC1` (single isomer, unassigned) [Compound 86] gave a DC50 under setting [1] of 1000 to 10000 nM. The greatest degradation seen (Dmax) under setting [2] was in the range of 30 to 50%.

Under setting [1], `Cn1cnnc1[C@@H](c1cccc(-n2cc3c(C(F)(F)F)cc(CN4CCC(OCCc5ccc(CN6CCN(c7ccc8c(c7)CN([C@@H]7CCC(=O)NC7=O)C8=O)CC6)cc5)CC4)cn3c2=O)c1)C1CCC1` (single isomer, unassigned) [Compound 115] gave a DC50 greater than 10000 nM. For the same compound, under setting [2], the Dmax was less than 30%. As for `CN(CCO[C@@H]1CCCN(Cc2cc(C(F)(F)F)c3cn(-c4cccc([C@H](c5nncn5C)C5CCC5)c4)c(=O)n3c2)C1)C(=O)c1ccc(N2CCN(c3ccc4c(c3)CN([C@H]3CCC(=O)NC3=O)C4=O)CC2)cc1` [Compound 104], the DC50 under setting [1] is 30 to 300 nM. On to `Cn1cnnc1CC1(c2cccc(-n3cc4c(C(F)(F)F)cc(CN5CCC(CCN6CCC(CC7CCN(c8ccc9c(c8)CN([C@@H]8CCC(=O)NC8=O)C9=O)CC7)CC6)CC5)cn4c3=O)c2)COC1` (single isomer, unassigned) [Compound 259], for which, under setting [1], the 50% degradation concentration (DC50) was in the range of 30 to 300 nM. Further, the Dmax under setting [2] was 50 to 70%.

Under setting [1], `Cn1cnnc1[C@@H](c1cccc(-n2cc3c(C(F)(F)F)cc(CN4CCC(OCc5ccc(C6CCN(c7ccc8c(c7)CN([C@@H]7CCC(=O)NC7=O)C8=O)CC6)cc5)CC4)cn3c2=O)c1)C1CCC1` (single isomer, unassigned) [Compound 213] showed a DC50 greater than 10000 nM. The Dmax under setting [2] is less than 30%.

Under setting [1], `Cn1cnnc1CC1(c2cccc(-n3cc4c(C(F)(F)F)cc(CN5CCC(OCCOCc6ccc(COCCNc7cccc8c7C(=O)N(C7CCC(=O)NC7=O)C8=O)cc6)CC5)cn4c3=O)c2)COC1` (centres unmarked) [Compound 3] returned a DC50 of 300 to 1000 nM. Moreover, the Dmax under setting [2] was in the range of 50 to 70%. Under setting [1], `Cn1cnnc1[C@@H](c1cccc(-n2cc3c(C(F)(F)F)cc(CN4CCC(OCCCN5CCN(c6ccc7c(c6)CN([C@H]6CCC(=O)NC6=O)C7=O)CC5)CC4)cn3c2=O)c1)C1CCC1` (single isomer, unassigned) [Compound 72] yielded a 50% degradation concentration (DC50) greater than 10000 nM. For the same compound, the Dmax under setting [2] was in the range of 30 to 50%.

In the case of `Cn1cnnc1[C@@H](c1cccc(-n2cc3c(C(F)(F)F)cc(CN4CCC(O[C@H]5CCCN(C(=O)c6ccc(N7CCN(c8ccc9c(c8)CN([C@@H]8CCC(=O)NC8=O)C9=O)CC7)cc6)C5)CC4)cn3c2=O)c1)C1CCC1` (single isomer, unassigned) [Compound 247], the half-maximal degradation concentration (DC50) under setting [1] was 300 to 1000 nM. Also, under setting [2], the maximal degradation (Dmax) fell in the range of 30 to 50%. Under setting [1], `CN(CCC1CCN(Cc2cc(C(F)(F)F)c3cn(-c4cccc([C@H](c5nncn5C)C5CCC5)c4)c(=O)n3c2)CC1)C(=O)c1ccc(N2CCN(c3ccc4c(c3)CN([C@H]3CCC(=O)NC3=O)C4=O)CC2)cc1` (single isomer, unassigned) [Compound 186] came in with a DC50 of less than 30 nM. Also, the Dmax under setting [2] is greater than 70%. For `Cn1cnnc1[C@@H](c1cccc(-n2cc3c(C(F)(F)F)cc(CN4CCC(OC(=O)N5CCC(CN6CCN(c7ccc8c(c7)CN([C@@H]7CCC(=O)NC7=O)C8=O)CC6)CC5)CC4)cn3c2=O)c1)C1CCC1` [Compound 237], under setting [1], the DC50 is 30 to 300 nM. The greatest degradation seen (Dmax) (THP-1) lay in the range of 50 to 70%. Under setting [1], `Cn1cnnc1[C@@H](c1cccc(-n2cc3c(C(F)(F)F)cc(CN4CCC(CC(=O)N5CCC(c6ccc(-c7ccc8c(c7)CN([C@H]7CCC(=O)NC7=O)C8=O)cc6)CC5)CC4)cn3c2=O)c1)C1CCC1` [Compound 182] returned a half-maximal degradation concentration (DC50) of less than 30 nM. Besides, under setting [2], the Dmax was 30 to 50%.
